Laboratory results published in PubChem BioAssay (NCI).
“And” between values parts separate entries of the source, which are not always exact repeats. Equal values may be shown once.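 Following 48 hours of exposure in 96-well plates, responses at five concentrations were used to interpolate endpoints linearly. The concentration for 50% growth inhibition is given as GI50. TGI: concentration producing complete growth inhibition.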

Each compound was assayed on MDA-MB-468 breast (assay: growth of human tumour cells (NCI), 48 h).
With `CC[C@H](C)[C@H](NC(=O)CN(C)C)C(=O)N(C)[C@H](C[C@@H](OC(C)=O)c1nc(C(=O)NC23CC(C(=O)OC)(C2)C3)cs1)C(C)C` the GI50 was 0.13 µM and the TGI was greater than 25 µM. `O=C1/C=C/[C@@H](O)[C@@H]2C[C@@H](O)C[C@H]2/C=C/CCC[C@H](C(F)(F)F)O1` showed a GI50 of 0.0233 µM and a TGI of 0.0691 µM. In the case of `O=c1oc2ccc(-c3ccc(F)cc3F)cc2c(=O)n1-c1ccc(F)c(F)c1`, the GI50 is reported as 1.01 µM and the TGI is reported as 4.23 µM. With `CCN(CC)Cc1cc2[nH]c3c4ccc(Cl)cc4ncc3c2cc1OC` the GI50 was 1.87 µM and 1.52 µM and the TGI was 3.64 µM and 3 µM. In the case of `Cn1ncc2ncc(-c3ccc4ncc(C#N)c(N5CCc6cc(F)c(Cl)cc65)c4c3)cc21`, the GI50 is reported as 2.44 µM and the TGI is reported as 10.6 µM. `O=C1Cc2cc(C(=O)NC3C[C@H]4CC[C@@H](C3)N4S(=O)(=O)CC3CCN(CCCC(F)(F)F)CC3)c(Cl)cc2N1` (some centres not stated) was tested, and the GI50 was 27 µM and the TGI was greater than 100 µM. For `N#CC1c2ccccc2C=CN1C(=O)N(c1ccccc1)c1ccccc1` (configuration not stated), the GI50 was 1.7 µM and the TGI was 3.4 µM. With `Cc1cc(Cl)nc(N(CCCNc2ccnc3cc(Cl)ccc23)Cc2ccco2)n1` the GI50 was 1.12 µM and the TGI was 3.94 µM. Work on `CSc1ccc2c(c1)C(N1CCN(C)CC1)Cc1ccccc1S2` (configuration not stated) yielded a GI50 of 1.47 µM and a TGI of 3.06 µM. Work on `CN(CC(=O)N(Cc1ccc(C2CCCCC2)cc1)c1ccc(C(=O)O)cc1)S(=O)(=O)c1c(F)c(F)c(F)c(F)c1F` yielded a GI50 of 1.76 µM and a TGI of 3.27 µM. Compound `COc1ccc(N(C)c2nc(N)nc3sc4c(c23)CCCC4)cc1` has a GI50 of less than 0.01 µM. Compound `COC(=O)c1ccc(NC(=O)Oc2ccc(N(CCCl)CCCl)cc2)cc1` has a GI50 of 1.22 µM and a TGI of 9.77 µM. Compound `CN1CSC(=S)N(Cc2ccccc2)C1` has a GI50 of 2.02 µM and a TGI of 6.03 µM. For `CN1CCN(CCCOc2cccc3nc(Nc4ccc(Cl)c(C(F)(F)F)c4)ccc23)CC1`, the GI50 was 1.6 µM and the TGI was 3.22 µM. With `CC[C@H](C)[C@H](NC(=O)[C@H]1CCCCN1C)C(=O)N(C)[C@H](C[C@@H](OC(C)=O)c1nc(C(=O)N[C@@H](Cc2ccccc2)C[C@H](C)C(=O)O)cs1)C(C)C` the GI50 was 0.000378 µM and 0.00165 µM and the TGI was 0.00398 µM. `Cn1c(-c2c(N)n(CCCN3CCOCC3)c3nc(C#N)c(C#N)nc23)nc2ccccc21` was tested, and the GI50 was 4.64 µM and the TGI was greater than 100 µM. `CCOC(=O)c1cnc2c(C)cccc2c1Nc1ccc(C(C)=O)cc1` showed a GI50 of 26.3 µM and a TGI greater than 100 µM. `CCn1c(-c2nonc2N)nc2cncc(C(=O)N3CC[C@H](N)C3)c21` showed a GI50 of 4.57 µM and a TGI of 24.5 µM. Work on `CC(=O)[O][Hg][c]1c(C)c(C)cc(C)c1C` yielded a GI50 of 0.793 µM and a TGI of 2.15 µM. `c1ccc2c3c([nH]c2c1)C(c1ccc(C2NCCc4c2[nH]c2ccccc42)cc1)NCC3` (configuration not stated) gave a GI50 of 0.367 µM and a TGI of 1.34 µM. With `COc1cc2c(=O)[nH]c3cc([N+](=O)[O-])ccc3c2cc1[N+](=O)[O-]` the GI50 was 1.03 µM and the TGI was 4.18 µM. For `COc1ccc2c(OCc3nnc4ccc(-c5ccccc5)nn34)ccnc2c1`, the GI50 was 3.22 µM and the TGI was greater than 100 µM. With `Cn1cc(C2=C(c3cn(CCCCCSC(=N)N)c4ccccc34)C(=O)NC2=O)c2ccccc21` the GI50 was 1.55 µM and the TGI was 5.46 µM. Compound `O=C(Nc1nc2ccccc2s1)Nc1ccc([N+](=O)[O-])cc1Cl` has a GI50 of 10.1 µM and a TGI of 27.2 µM. `Cn1ncc(Cl)c1-c1cc(C(=O)N[C@H](CN)Cc2ccc(F)c(F)c2)oc1Cl` was tested, and the GI50 was < 0.0169 µM and 0.0194 µM and the TGI was 0.282 µM and 0.458 µM. In the case of `O=C(CN1C(=O)S/C(=C\C(Cl)=C\c2ccccc2)C1=O)NC1C=CS(=O)(=O)C1` (configuration not stated), the GI50 is reported as 0.531 µM and the TGI is reported as 2.29 µM. `O=C1NC(=NCCCc2ccccc2)S/C1=C\c1ccc2ncccc2c1` showed a GI50 of 4.37 µM and a TGI of 17.4 µM. `COC(=O)[C@H]1CCCN1C(=O)[C@H]1CCCN1C(=O)[C@H](Cc1c[nH]c2ccccc12)NC(=S)Nc1cc(C(F)(F)F)cc(C(F)(F)F)c1` was tested, and the GI50 was 3.68 µM and the TGI was 68.8 µM. For `CN1CCN(c2nc(-c3cnc4ccccc4n3)cc3ccccc23)CC1`, the GI50 was 4.98 µM and the TGI was 10.6 µM. `COc1nnc2ccc(N3CCC(c4ccc(OCCN5CCN(C)C(=O)[C@H]5C)cc4)CC3)nn12` showed a GI50 of 0.052 µM and a TGI greater than 34.8 µM. For `NC(=S)c1c(N)n(C2OC(CO)C(O)C2O)c2ncnc(N)c12` (configuration not stated), the GI50 was 0.135 µM and the TGI was 0.326 µM. For `COc1ccc(N=N/C(C(=O)C(F)(F)F)=C(\O)c2ccc(Cl)cc2)cc1`, the GI50 was 1.84 µM and the TGI was 5.68 µM. `CO[C@H]1C[C@@H]2CC[C@@H](C)[C@@](O)(O2)C(=O)C(=O)N2CCCC[C@H]2C(=O)O[C@H]([C@H](C)C[C@@H]2CC[C@@H](OCCO)[C@H](OC)C2)CC(=O)[C@H](C)C=C(C)[C@@H](O)[C@@H](OC)C(=O)[C@H](C)C[C@H](C)/C=C/C=C/C=C1C` gave a GI50 of less than 0.0117 µM and a TGI of 14.9 µM. In the case of `CC1OC(O[C@@H]2[C@H](O)C(CO)OC(O[C@H]3COC(O[C@H]4CC[C@]5(C)[C@H]6CC[C@]78OC[C@@]9(CCC(C)(C)C[C@H]97)[C@H](O)C[C@@]8(C)[C@]6(C)CC[C@H]5C4(C)C)[C@@H](OC4OC(CO)[C@@H](O)[C@@H](O)[C@@H]4O)[C@@H]3O)[C@H]2OC2OC[C@@H](O)[C@@H](O)[C@@H]2O)[C@@H](O)[C@@H](O)[C@H]1O` (some centres not stated), the GI50 is reported as 2.11 µM and the TGI is reported as 4.33 µM. `COc1cc2nc3cc([N+](=O)[O-])ccc3c(NCCNCC(C)(C)O)c2cc1OC` gave a GI50 of 0.22 µM and a TGI of 0.614 µM. `Oc1[nH]c2ccccc2c1/C=c1/cc2c(c(-c3ccc(F)cc3)n1)=Nc1ccccc1-2` gave a GI50 of 0.282 µM and a TGI of 0.978 µM. With `CCN1CCN(C(=O)[C@]23CCC(C)(C)C[C@@H]2C2=CC[C@@H]4[C@@]5(C)C/C(=C/c6ccncc6)C(=O)C(C)(C)[C@@H]5CC[C@@]4(C)[C@]2(C)CC3)CC1` the GI50 was 1.43 µM and the TGI was 3.14 µM. Compound `N=c1c2c(=N)n3c(nc2nc2n1-c1ccccc1Sc1ccccc1-2)sc1cc(Cl)ccc13` has a GI50 of 1.34 µM and a TGI of 5.41 µM. Work on `COc1cc(-c2nn(-c3cccc(NC(=O)c4ccc(Cl)c(C(F)(F)F)c4)c3)cc2-c2ccncc2)ccc1Cl` yielded a GI50 of 2.74 µM and a TGI greater than 32.5 µM. `CC(=O)c1c(C)[nH]c(-c2nc3ccc(N4CCN(C)CC4)cc3[nH]2)c1-c1ccccc1` was tested, and the GI50 was 0.361 µM and the TGI was 9.27 µM. With `CC[n+]1c(/C=C/C=C2\N(C)c3ccccc3C2(C)C)sc2ccccc21` the GI50 was 2.77 µM and the TGI was 8.44 µM. `C=CC(=O)N1CC2(CC(n3nc(-c4ccc5c(cnn5C)c4)c(-c4c(Cl)c(C)cc5[nH]ncc45)c3C)C2)C1` was tested, and the GI50 was 2.67 µM and the TGI was 9.27 µM. Compound `COc1ccc(/C(C#N)=C2C=C/C(=N/O)c3ccccc3\2)cc1` has a GI50 of 0.395 µM and a TGI of 16.5 µM. Compound `CN(Cc1cnc2nc(N)nc(N)c2n1)c1ccc(C(=O)NC(CCC(=O)O)C(=O)O)cc1Br` (configuration not stated) has a GI50 of less than 0.01 µM and a TGI of 1.91 µM. `CCCCCCCCCCCC[n+]1ccc2ccccc2c1` was tested, and the GI50 was 0.206 µM and the TGI was 0.808 µM. For `Cc1cc([N+](=O)[O-])c2ccccc2[n+]1[O-]`, the GI50 was 0.18 µM and 0.121 µM and the TGI was 0.512 µM and 0.369 µM. In the case of `O=[N+]([O-])c1cccc(C2CC(c3ccccc3)=Nc3ccccc3S2)c1` (configuration not stated), the GI50 is reported as 13.4 µM and the TGI is reported as 31.2 µM. `O=C(COc1cccc(/C=C2\CSc3ccccc3C2=O)c1)Nc1nccs1` showed a GI50 of 1.59 µM and a TGI of 3.15 µM. Work on `CN(CCCNC(=O)CCOCCOCCOCCNC(=O)Cc1ccc2ccc3cccc4ccc1c2c34)CCCNc1cc(-c2ccc3ccccc3c2)nc2ccccc12` yielded a GI50 of 0.509 µM and a TGI of 1.03 µM.
